Reference: publication PMC9307952, “Lipoate protein ligase B primarily recognizes the C8-phosphopantetheine arm of its donor substrate and weakly binds the acyl carrier protein” (The Journal of Biological Chemistry, 2022)

Assays:
E. coli LipB (EcLipB) [1] = target: T1, E. coli LipB (EcLipB) (Escherichia coli, UniProt P60720, K135A/C169A); details: 15N-labelled inactive double mutant, C8-CoA up to 1:2 molar ratio
E. coli LipB (EcLipB) [2] = target: T1, E. coli LipB (EcLipB); details: CoA:LipB 10:1, 50 mM Tris, 200 mM NaCl, pH 7.8, 283 K
E. coli LipB (EcLipB) [3] = target: E. coli LipB (EcLipB) (Escherichia coli, UniProt P60720, R71A); details: CoA:LipB 10:1, 50 mM Tris, 200 mM NaCl, pH 7.8, 283 K
E. coli LipB (EcLipB) [4] = target: E. coli LipB (EcLipB) (Escherichia coli, UniProt P60720, G72A/G73A); details: CoA:LipB 10:1 (STD, 283 K) or 8:1 (31P, 298 K), 50 mM Tris, 200 mM NaCl, pH 7.8
E. coli LipB (EcLipB) [5] = target: E. coli LipB (EcLipB) (Escherichia coli, UniProt P60720, C169A); details: CoA:LipB 8:1, 50 mM Tris, 200 mM NaCl, pH 7.8, 298 K

Compound: CCCCCCCC(=O)SCCNC(=O)CCNC(=O)[C@H](O)C(C)(C)COP(=O)(O)OP(=O)(O)OC[C@H]1O[C@@H](n2cnc3c(N)ncnc32)[C@H](O)[C@@H]1OP(=O)(O)O [C8-CoA]
- 15N TROSY-HSQC NMR titration (E. coli LipB (EcLipB) [1]): The pattern of amide perturbations though confirmed that E. coli LipB binds C8-CoA

Compound: CC(C)(COP(=O)(O)OP(=O)(O)OC[C@H]1O[C@@H](n2cnc3c(N)ncnc32)[C@H](O)[C@@H]1OP(=O)(O)O)[C@@H](O)C(=O)NCCC(=O)NCCS [CoA]
- 1H STD NMR (E. coli LipB (EcLipB) [2]): STD spectra for CoA in the presence of WT LipB, LipBK135A/C169A (catalytically inactive double mutant)
- 1H STD NMR (E. coli LipB (EcLipB) [3]): visible in both the spectra, suggesting binding of CoA with the mutants
- 1H STD NMR; 31P NMR (E. coli LipB (EcLipB) [4]): visible in both the spectra, suggesting binding of CoA with the mutants
- 31P NMR (E. coli LipB (EcLipB) [5]): upfield change in chemical shift upon addition of WT LipB
